In patent publication US11761023B2, “Analyzing and using motility kinematics of microorganisms” (PhAST Corp., priority 2017, dated 2023):
≈ marks a conversion by molar mass, not a printed value. Like-named read-outs stand apart in the source and are kept apart here.

Columns and labels:
Type in all cases: cell-based, Pseudomonas aeruginosa
[1] = test system: P. aeruginosa PA14; test: Single-cell swimming kinematics (ASK software, phase contrast video microscopy) upon antibiotic exposure; settings: for change in swimming speed compared to antibiotic-free control: FIG. 12
[2] = test system: susceptible clinical isolate of P. aeruginosa (PSA 9/53); test: Single-cell swimming speed (ASK software) relative to antibiotic-free control; settings: ciprofloxacin 4 μg/ml, meropenem 0.5 μg/ml, gentamicin 8 μg/ml; FIG. 17
Excerpt: The swimming speed (y axis) was normalized by the speed in the control (which thus becomes the dashed line at 1).

[3] = test system: clinical isolate P. aeruginosa 9/53; test: MIC by broth microdilution assay
[4] = test system: P. aeruginosa ATCC 27853; test: MIC by broth microdilution assay

CC(C)(O/N=C(\C(=O)N[C@@H]1C(=O)N2C(C(=O)[O-])=C(C[n+]3ccccc3)CS[C@H]12)c1csc(N)n1)C(=O)O [ceftazidime]
change in swimming speed compared to antibiotic-free control ([1]; 0.1 μg/ml): no significant changes
decrease of mean swimming speed compared to the antibiotic-free control ([1]; 1 μg/ml, after 30 min): 14%
mean swimming speed of exposed cells ([1]; 1 μg/ml, after 30 min): 42.6 μm/s
decrease of mean swimming speed compared to the antibiotic-free control ([1]; 1 μg/ml, after 50 min): 23%
mean swimming speed of exposed cells ([1]; 1 μg/ml, after 50 min): 35.4 μm/s
decrease of mean swimming speed compared to the antibiotic-free control ([1]; 1 μg/ml, after 70 min): 33%
mean swimming speed of exposed cells ([1]; 1 μg/ml, after 70 min): 31.2 μm/s

C[C@@H](O)[C@H]1C(=O)N2C(C(=O)O)=C(S[C@@H]3CN[C@H](C(=O)N(C)C)C3)[C@H](C)[C@H]12 [meropenem]
sensitivity of motility (swimming speed) to the antibiotic [2]: less so
MIC ([3]; Pseudomonas aeruginosa, read-out: MIC): 0.5 µg/mL (≈ 1.3 µM)

gentamicin
change in swimming speed compared to antibiotic-free control ([1]; 0.1 μg/ml): not
change in swimming speed compared to antibiotic-free control ([1]; 1 μg/ml): not
change in swimming speed compared to antibiotic-free control ([1]; 10 μg/ml): significantly reduced
sensitivity of motility (swimming speed) to the antibiotic [2]: very sensitive
MIC [3]: 1 µg/mL
MIC [4]: 1 µg/mL
